Publication PMC6155662, “Trypanocidal Activity of Quinoxaline 1,4 Di-N-oxide Derivatives as Trypanothione Reductase Inhibitors” (Molecules : A Journal of Synthetic Chemistry and Natural …, 2017)

What was measured:
[1] = biological target: T1, recombinant human glutathione reductase (GR) (Homo sapiens, UniProt P00390); assay: GR enzyme inhibition (NADPH consumption at 340 nm); assay type: biochemical; settings: inhibitor 5-60 μM; 100 µM GSSG; read-out: IC50 against hGR
T1 sequence (P00390 44-522): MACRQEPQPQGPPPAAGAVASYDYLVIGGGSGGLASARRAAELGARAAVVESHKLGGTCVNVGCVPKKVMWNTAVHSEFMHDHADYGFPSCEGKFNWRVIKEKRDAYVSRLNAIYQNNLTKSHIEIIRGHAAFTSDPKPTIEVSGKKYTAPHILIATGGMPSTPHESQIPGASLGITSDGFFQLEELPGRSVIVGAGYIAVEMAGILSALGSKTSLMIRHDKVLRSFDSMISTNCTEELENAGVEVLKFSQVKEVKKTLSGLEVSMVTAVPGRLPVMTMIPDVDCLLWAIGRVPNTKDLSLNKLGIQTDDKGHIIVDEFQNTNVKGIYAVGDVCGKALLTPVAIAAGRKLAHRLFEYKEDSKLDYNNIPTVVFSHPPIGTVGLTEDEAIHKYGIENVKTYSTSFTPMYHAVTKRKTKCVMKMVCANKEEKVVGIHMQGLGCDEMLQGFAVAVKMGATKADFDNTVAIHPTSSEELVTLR
Method: Trypanothione disulfide (TS2) and recombinant T. cruzi TR were prepared following published procedures. Recombinant human glutathione reductase (GR) was kindly provided by Dr. Heiner Schirmer, Heidelberg Germany. Stock solutions (5 mM) of the inhibitors were prepared in DMSO. The kinetic analyses were conducted using a Jasco V650 spectrophotometer. All enzymatic tests were performed in polystyrene optical cuvettes (10 × 4 × 45 mm). TR activity was measured at 25 °C in a total volume of 1 mL TR assay buffer (40 mM HEPES, 1 mM EDTA, pH 7.5 [47]) containing 100 μM NADPH and 5–10 mU enzyme in the absence and presence of the inhibitor. Each assay contained a total of 5% DMSO. The reaction was started by adding TS2 and NADPH consumption was followed at 340 nm.
GR activity was measured at 25 °C in a total volume of 1 mL GR assay buffer (20.5 mM KH2PO4, 26.5 mM K2HPO4, 200 mM KCl, 1 mM EDTA, pH 6.9). The assays contained 100 µM NADPH and 5–10 mU GR and varying concentrations of the inhibitor. The reaction was started by adding 100 µM GSSG and the absorption decrease was followed at 340 nm.
Five compound concentrations were used ranging from 100–5 μM. […] IC50 values were calculated using the four-parameter equation model 205 and the option “unlock” from the XLfit add-in (IDBS, Guildford, United Kingdom) for Excel (Microsoft Corporation, Redmond, WA, USA).

[2] = Cytotoxicity assay (Alamar Blue) on macrophages; assay type: cell-based, murine; settings: mouse, J774A.1 macrophages, mean and SD of triplicate
Method: The murine macrophage cell line J774.A1 was maintained in culture flasks with RPMI 1640 medium supplemented with 10% FBS, 1% MEM-NEAA medium (Gibco) and 100 U/mL antibiotic-antifungal mixture (Gibco). Cells were incubated at 37 °C with 5% CO2 and humidity. Trypsinized J774.A1 macrophages were washed and viability was assessed by the trypan blue dye (Sigma-Aldrich, Toluca, Edo de Mexico, Mexico) exclusion assay. In a 96-well microplate, 50,000 macrophages were seeded per well and a dose-response assay was performed. Compounds were evaluated using six-fold serial dilutions ranging from 100 µg/mL to 0.3 µg/mL of final concentration. Each compound was tested in triplicate. After 20 h incubation, Alamar Blue was added (10% v/v) and cells were incubated for an additional 4 h period. Results were obtained as previously described and CC50 was calculated. As a negative control of cytotoxicity, cells were incubated only in the presence of 0.1% DMSO [39, 40].

**Q.** With CC(C)OC(=O)c1ccc2c(c1)[n+]([O-])c(C(=O)C(C)C)c(C(F)(F)F)[n+]2[O-] [Compound T-085, Isopropyl 2-isobutyryl-3-trifluoromethylquinoxaline-7-carboxylate 1,4-di-N-oxide] as the compound, how does the IC50 [1] read?
**A.** Its IC50 is 50 µM.

**Q.** What about the CC50 at 24 h [2] of the same compound?
**A.** Its CC50 at 24 h is 10.4 ± 0.8 µM.
